Assay results: ChEMBL document CHEMBL4706752 (ACS Med Chem Lett, 2021)

What was measured:
[1] = Metabolic stability in human liver microsomes assessed as compound remaining after 10 mins; format: ADME, Microsome; conditions: read-out: Stabilty
Cytochrome P450 2C8 = molecular target: T1, Cytochrome P450 2C8 (Homo sapiens, UniProt P10632); assay: Inhibition of CYP2C8 (unknown origin); format: ADME
T1 sequence (P10632 whole entry): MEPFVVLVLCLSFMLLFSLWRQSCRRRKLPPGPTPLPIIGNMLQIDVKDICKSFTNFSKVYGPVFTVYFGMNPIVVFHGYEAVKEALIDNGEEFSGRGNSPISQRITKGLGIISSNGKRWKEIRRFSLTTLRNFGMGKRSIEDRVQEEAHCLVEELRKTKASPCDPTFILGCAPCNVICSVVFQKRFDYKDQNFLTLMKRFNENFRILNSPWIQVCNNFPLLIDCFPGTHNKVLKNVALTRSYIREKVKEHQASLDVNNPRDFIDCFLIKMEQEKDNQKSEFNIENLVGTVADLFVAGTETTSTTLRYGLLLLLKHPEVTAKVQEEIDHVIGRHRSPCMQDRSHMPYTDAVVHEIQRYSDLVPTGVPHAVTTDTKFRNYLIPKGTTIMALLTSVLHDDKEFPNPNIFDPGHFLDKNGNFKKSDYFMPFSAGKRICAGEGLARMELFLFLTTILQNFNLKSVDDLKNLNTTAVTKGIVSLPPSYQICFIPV

Cytochrome P450 3A4 = Cytochrome P450 3A4 (Homo sapiens, UniProt P08684); assay: Inhibition of CYP3A4 (unknown origin); format: ADME
[2] = Protein binding in mouse serum assessed as fraction unbound; format: ADME, cell-free; conditions: read-out: PB
[3] = Apparent permeability across apical to basolateral membrane in human Caco2 cells; format: ADME, cell-based; conditions: Caco-2
[4] = Metabolic stability in mouse liver microsomes assessed as compound remaining after 10 mins; format: ADME, Microsome; conditions: read-out: Stabilty
[5] = Efflux ratio of apparent permeability across basolateral to apical side over apical to basolateral side in Caco2 cells; format: ADME, cell-based; conditions: human, Caco-2
[6] = molecular target: T2, Nuclear receptor ROR-gamma (Homo sapiens, UniProt P51449); assay: Inverse agonist activity at human Gal4-fused RORgammat expressed in human Jurkat cells luciferase reporter gene assay; format: cell-based
T2 sequence (P51449 whole entry): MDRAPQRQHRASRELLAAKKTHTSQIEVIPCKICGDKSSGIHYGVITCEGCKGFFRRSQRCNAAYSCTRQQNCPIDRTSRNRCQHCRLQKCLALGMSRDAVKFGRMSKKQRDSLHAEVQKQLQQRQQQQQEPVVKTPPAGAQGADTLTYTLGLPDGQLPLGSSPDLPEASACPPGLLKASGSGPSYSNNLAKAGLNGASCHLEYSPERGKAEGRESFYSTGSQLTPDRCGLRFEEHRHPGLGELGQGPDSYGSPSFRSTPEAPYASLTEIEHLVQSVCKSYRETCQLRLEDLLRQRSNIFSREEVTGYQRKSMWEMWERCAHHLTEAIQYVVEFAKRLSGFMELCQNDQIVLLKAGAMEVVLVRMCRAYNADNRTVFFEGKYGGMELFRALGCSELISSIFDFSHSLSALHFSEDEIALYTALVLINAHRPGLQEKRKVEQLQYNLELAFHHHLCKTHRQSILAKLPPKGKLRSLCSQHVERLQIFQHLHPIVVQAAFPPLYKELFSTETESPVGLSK

[7] = Protein binding in human serum assessed as fraction unbound; format: ADME, cell-free; conditions: read-out: PB
[8] = molecular target: T2, Nuclear receptor ROR-gamma; assay: Inverse agonist activity at RORgammat in human whole blood assessed as inhibition of anti-CD3/anti-CD28 monoclonal antibodies-stimulated IL-17A production measured by ELISA; format: tissue-based
Cytochrome P450 2C9 = Cytochrome P450 2C9 (Homo sapiens, UniProt P11712); assay: Inhibition of CYP2C9 (unknown origin); format: ADME
Cytochrome P450 2C19 = Cytochrome P450 2C19 (Homo sapiens, UniProt P33261); assay: Inhibition of CYP2C19 (unknown origin); format: ADME
Sequence of Cytochrome P450 2C19 (P33261 whole entry): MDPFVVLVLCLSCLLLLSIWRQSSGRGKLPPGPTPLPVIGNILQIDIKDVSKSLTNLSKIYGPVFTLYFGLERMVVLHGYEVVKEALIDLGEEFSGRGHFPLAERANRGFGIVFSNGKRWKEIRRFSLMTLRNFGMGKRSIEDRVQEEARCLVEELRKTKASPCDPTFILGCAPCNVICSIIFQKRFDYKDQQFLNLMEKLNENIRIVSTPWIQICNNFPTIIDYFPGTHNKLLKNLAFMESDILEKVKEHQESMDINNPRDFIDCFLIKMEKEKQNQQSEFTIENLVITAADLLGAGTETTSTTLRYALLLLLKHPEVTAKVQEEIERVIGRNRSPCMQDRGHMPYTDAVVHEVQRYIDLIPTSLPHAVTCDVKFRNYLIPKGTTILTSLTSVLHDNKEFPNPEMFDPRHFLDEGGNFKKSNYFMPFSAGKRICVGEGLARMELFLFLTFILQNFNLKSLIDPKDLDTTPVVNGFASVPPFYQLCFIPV

Sequence of Cytochrome P450 2C9 (P11712 whole entry): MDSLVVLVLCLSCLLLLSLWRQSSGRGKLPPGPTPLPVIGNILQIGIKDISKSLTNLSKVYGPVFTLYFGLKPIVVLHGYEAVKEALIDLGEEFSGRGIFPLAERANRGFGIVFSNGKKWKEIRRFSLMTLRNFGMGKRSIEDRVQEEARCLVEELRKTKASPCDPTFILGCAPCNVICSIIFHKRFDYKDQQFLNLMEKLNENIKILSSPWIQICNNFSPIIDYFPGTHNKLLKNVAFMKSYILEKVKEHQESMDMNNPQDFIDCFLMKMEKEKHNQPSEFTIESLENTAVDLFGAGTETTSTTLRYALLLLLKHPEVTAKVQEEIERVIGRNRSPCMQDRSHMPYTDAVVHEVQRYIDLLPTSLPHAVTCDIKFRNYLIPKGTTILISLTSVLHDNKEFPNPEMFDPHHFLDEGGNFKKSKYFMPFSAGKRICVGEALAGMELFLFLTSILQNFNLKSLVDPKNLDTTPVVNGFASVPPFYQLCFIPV
Sequence of Cytochrome P450 3A4 (P08684 whole entry): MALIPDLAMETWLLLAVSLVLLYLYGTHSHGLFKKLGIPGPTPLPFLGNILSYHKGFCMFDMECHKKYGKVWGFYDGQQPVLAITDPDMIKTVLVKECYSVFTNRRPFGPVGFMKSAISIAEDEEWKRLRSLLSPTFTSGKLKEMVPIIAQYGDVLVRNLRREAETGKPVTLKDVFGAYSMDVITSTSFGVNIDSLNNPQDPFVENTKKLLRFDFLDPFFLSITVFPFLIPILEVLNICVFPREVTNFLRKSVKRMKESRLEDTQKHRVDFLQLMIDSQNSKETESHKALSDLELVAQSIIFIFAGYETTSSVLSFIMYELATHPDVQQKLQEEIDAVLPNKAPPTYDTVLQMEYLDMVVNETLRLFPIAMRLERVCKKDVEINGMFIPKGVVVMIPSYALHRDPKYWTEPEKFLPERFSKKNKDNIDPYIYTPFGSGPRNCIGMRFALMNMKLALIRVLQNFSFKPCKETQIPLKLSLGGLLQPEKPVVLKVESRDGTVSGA

Row | Compound | remaining at 10 min [1] [%] | IC50 (Cytochrome P450 2C8) [µM] | IC50 (Cytochrome P450 3A4) [µM] | fraction unbound [2] | Papp A→B [3] [×10⁻⁶ cm/s] | remaining at 10 min [4] [%] | efflux ratio [5] | EC50 [6] [µM] | fraction unbound [7] | EC50 [8] [µM] | IC50 (Cytochrome P450 2C9) [µM] | IC50 (Cytochrome P450 2C19) [µM]
1 | N#CCCN1C(=O)CC[C@H]1C(=O)N1CC[C@@]2(S(=O)(=O)c3ccc(F)cc3)c3ccc(C(F)(C(F)(F)F)C(F)(F)F)nc3CC[C@@H]12 | 100 | > 20 | 19 | 0.051 | 19 | 83 | 1.7 | 0.024 | 0.071 | 0.031 |  | 
2 | N#CCCN1C(=O)CC[C@H]1C(=O)N1CC[C@@]2(S(=O)(=O)c3ccc(F)cc3)c3ccc(C(F)(C(F)(F)F)C(F)(F)F)cc3CC[C@@H]12 | 92 | 13 | 10 | 0.017 | 17 | 85 |  |  | 0.018 |  |  | 
3 | C[C@](O)(CS(C)(=O)=O)C(=O)N[C@@H]1CC[C@@]2(S(=O)(=O)c3ccc(F)cc3)c3ccc(C(F)(C(F)(F)F)C(F)(F)F)cc3CC[C@@H]12 | 89 | 13 | > 20 | 0.002 | 7.6 | 83 | 0.9 | 0.0055 |  | 0.12 | 9.2 | 15
4 | O=C(C1CCS(=O)(=O)CC1)N1CC[C@@]2(S(=O)(=O)c3ccc(F)cc3)c3ncc(C(F)(C(F)(F)F)C(F)(F)F)cc3CC[C@@H]12 | 100 |  |  |  |  | 96 |  | 0.071 |  |  |  | 
5 | O=C(N[C@@H]1CC[C@@]2(S(=O)(=O)c3ccc(F)cc3)c3ccc(C(F)(C(F)(F)F)C(F)(F)F)nc3CC[C@@H]12)C1CCS(=O)(=O)CC1 | 100 | 16 | > 20 | 0.022 | 8.1 | 82 | 2.2 | 0.0084 |  | 0.067 | 9.5 | > 20
6 | O=C(C1CCS(=O)(=O)CC1)N1CC[C@@]2(S(=O)(=O)c3ccc(F)cc3)c3ccc(C(F)(C(F)(F)F)C(F)(F)F)nc3CC[C@@H]12 | 100 | 16 | > 20 | 0.05 | 23 | 91 |  |  |  |  |  | 
7 | N#CCCN1C(=O)CC[C@H]1C(=O)N1CC[C@@]2(S(=O)(=O)c3ccc(F)cc3)c3cnc(C(F)(C(F)(F)F)C(F)(F)F)cc3CC[C@@H]12 | 100 | > 20 | 12 | 0.068 | 12 | 69 |  |  | 0.12 |  |  | 
8 | C[C@](O)(CS(C)(=O)=O)C(=O)N[C@@H]1CC[C@@]2(S(=O)(=O)c3ccc(F)cc3)c3ccc(C(F)(C(F)(F)F)C(F)(F)F)nc3CC[C@@H]12 | 97 |  |  |  |  | 100 |  |  |  |  |  | 
9 | O=C(C1CCS(=O)(=O)CC1)N1CC[C@@]2(S(=O)(=O)c3ccc(F)cc3)c3cnc(C(F)(C(F)(F)F)C(F)(F)F)cc3CC[C@@H]12 | 92 |  |  |  |  | 49 |  | 0.017 |  | 0.023 |  | 
10 | N#CCCN1C(=O)CC[C@H]1C(=O)N1CC[C@@]2(S(=O)(=O)c3ccc(F)cc3)c3ncc(C(F)(C(F)(F)F)C(F)(F)F)cc3CC[C@@H]12 | 83 | > 20 | > 20 | 0.16 | 9.4 | 82 |  |  | 0.2 |  |  | 

Further molecules by falling IC50 (Cytochrome P450 2C8), results first:

Row | remaining at 10 min [1] [%] | IC50 (Cytochrome P450 2C8) [µM] | IC50 (Cytochrome P450 3A4) [µM] | fraction unbound [2] | Papp A→B [3] [×10⁻⁶ cm/s] | remaining at 10 min [4] [%] | efflux ratio [5] | EC50 [6] [µM] | fraction unbound [7] | EC50 [8] [µM] | IC50 (Cytochrome P450 2C9) [µM] | IC50 (Cytochrome P450 2C19) [µM] | Compound
11 | 97 | 12 | 11 | 0.006 | 15 | 86 |  |  | 0.002 |  | 12 | 7.7 | CC(C)(O)CC(=O)N[C@@H]1CC[C@@]2(S(=O)(=O)c3ccc(F)cc3)c3ccc(C(F)(C(F)(F)F)C(F)(F)F)cc3CC[C@@H]12
12 | 93 | 9.4 | 13 | 0.068 | 13 | 100 |  |  | 0.008 |  |  |  | O=C(C1CCS(=O)(=O)CC1)N1CC[C@@]2(S(=O)(=O)c3ccc(F)cc3)c3ccc(C(F)(C(F)(F)F)C(F)(F)F)cc3CC[C@@H]12
13 | 100 | 8.3 | > 20 | 0.023 | 18 | 100 | 0.5 | 0.0039 |  | 0.067 | 3.2 | > 20 | CC(C)(O)C(=O)N[C@@H]1CC[C@@]2(S(=O)(=O)c3ccc(F)cc3)c3ccc(C(F)(C(F)(F)F)C(F)(F)F)nc3CC[C@@H]12
14 | 100 | 6.5 | 5.8 | 0.003 | 7.3 | 95 | 0.5 | 0.0087 |  | 0.05 | 5.5 | > 20 | O=C(N[C@@H]1CC[C@@]2(S(=O)(=O)c3ccc(F)cc3)c3ccc(C(F)(C(F)(F)F)C(F)(F)F)cc3CC[C@@H]12)C1CCS(=O)(=O)CC1
15 | 100 | 6.3 | 9.1 | 0.018 | 12 | 87 | 0.5 | 0.006 |  | 0.101 | 8.5 | 16 | CC(C)(O)CC(=O)N[C@@H]1CC[C@@]2(S(=O)(=O)c3ccc(F)cc3)c3ccc(C(F)(C(F)(F)F)C(F)(F)F)nc3CC[C@@H]12
16 | 98 | 5 | > 20 | 0.004 | 6.4 | 84 | 0.5 | 0.0025 |  | 0.039 | 12 | 15 | C[C@@](O)(CS(C)(=O)=O)C(=O)N[C@@H]1CC[C@@]2(S(=O)(=O)c3ccc(F)cc3)c3ccc(C(F)(C(F)(F)F)C(F)(F)F)cc3CC[C@@H]12
